Measured values published in paper PMC3834941, “Pharmacokinetic Evaluation of a DSPE-PEG2000 Micellar Formulation of Ridaforolimus in Rat” (Pharmaceutics, 2012).

Assays:
[1] = parameters: method as in PMID 19228743; details: humans, clinical Phase I trials; cited from earlier work
[2] = In vitro release by dialysis into PBS pH 7.4, 37 °C; type: physicochemical; details: free drug
Description: The in vitro release of the drug from DSPE-PEG2000 micelles into PBS (pH 7.4) was done by a dialysis method. Dialysis was carried out at 37 °C under sink condition using a 10-kDa MWCO dialysis tubing (SnakeSkin®, Thermo Scientific Inc., Rockford, IL, USA). The initial volume of drug-loaded micelles in the dialysis tubing was 2 mL and the sink solution was 4 L. The PBS was changed several times per day to maintain sink conditions. After pre-determined time intervals, samples were withdrawn from the dialysis bag and analyzed by a reversed phase HPLC column (TSK-GEL® ODS-100Z, Tosoh Bioscience) at 50 °C with UV detection at 290 nm.

Structure (SMILES): CO[C@H]1C[C@@H]2CC[C@@H](C)[C@@](O)(O2)C(=O)C(=O)N2CCCC[C@H]2C(=O)O[C@H]([C@H](C)C[C@@H]2CC[C@@H](OP(C)(C)=O)[C@H](OC)C2)CC(=O)[C@H](C)/C=C(\C)[C@@H](O)[C@@H](OC)C(=O)[C@H](C)C[C@H](C)/C=C/C=C/C=C/1C [Ridaforolimus, ridaforolimus]
- half-life [1]: 45 to 52 h
- in vitro release t50% [2]: less than 20 min
- in vitro release t90% [2]: 1 h
